Tested on: IgG antibodies
Test: Serum IgG antibodies binding glucan
Conditions: pooled serum from 10 human donors
Description: Serum from 10 unimmunized normal healthy donors was pooled
Pooled serum from 10 human donors, had high levels of IgG antibodies binding β-1,6-glucan, in contrast to low levels of IgG binding β-1,3-glucan. To test how prevalent is the anti-β-b 1,6-glucan antibodies in different donors, we collected sera from 12 individuals. The sera were used to opsonize β-1,6-glucan- or β-1,3-glucan-coated beads, and the beads were incubated with human neutrophils. Eleven of the twelve sera had the high response that the pool did, mediating efficient engulfment and ROS production (FIG. 2A, a representative serum of the high responders). One serum mediated a less efficient engulfment and ROS production (FIG. 2B, low responder).

levels of IgG antibodies binding the glucan	Substance
low levels	β-1,3-glucan
high levels	β-1,6-glucan

Reference: US9005903B2, “Immunomodulating compositions and methods of use thereof” (ImmuneXcite, Inc., priority 2008, dated 2015)
